Results on one molecule are retold here after US7371822B2, “Human G-protein coupled receptor variant of HM74, HGPRBMY74” (Bristol-Myers Squibb Company, priority 2003, dated 2008).

This assay deals with human kidney 293E cells stably transfected with Gαiq—5. As to the kind of experiment: cells. The following applies: 293E cells with Gαiq—5 coding region only. The protocol:
The growth medium in the 6-well plate was replaced with antibiotic-free medium at 3 ml per well. DNA complexes were added at 320 μl per well and plates were returned to the incubator. […] 25 μl of this suspension was added to 30 ml of selective medium in a 15 cm tissue culture plate. Cells were maintained in selective medium for approximately two weeks. Five single clones were isolated and grown in 24-well, then 6-well, then T-75 tissue culture plates.
Thirty hours later cells were loaded with 100 μl loading dye. […] A stock solution of Probenecid (Sigma P8761) was prepared by dissolving 70 mg in 500 μl 1 M NaOH and then adding 500 μl of FIPR assay buffer. This was added to the loading solution at a final concentration of 700 μg/ml. After adding the loading dye, cells were returned to the incubator for one hour.
After one hour loading, dye was removed from the wells by gentle aspiration and replaced with 120 μl of FLIPR assay buffer.
Data were analyzed and plotted using XLfit (IDBS).

Like-named read-outs stand apart in the source and are kept apart here.

What is called EC50 is the concentration giving half of the maximal effect. With `O=C(O)c1cccnc1` [nicotinic acid, Nicotinic acid], the EC50 runs as follows: (Homo sapiens, read-out: calculated EC50, FIG. 5) 833 nM; (read-out: calculated EC50, FIG. 5) 823 nM.
